Results taken from patent US8633301B2, “Antitumor combinations containing antibodies recognizing specifically CD38 and vincristine” (Sanofi, priority 2008, dated 2014).
Where “and” joins values, the source holds several entries; their conditions need not be identical. Equal values may be shown once. Entries after “also recorded” stand apart in the source; their conditions may differ.

How the values were obtained:
[1] = Toxicity (body weight change, drug death) in DND-41 tumor-bearing SCID mice; format: in vivo
[2] = tested on: human T-cell acute lymphoblastic leukemia (T-ALL) cell line, DND-41; assay: Antitumor efficacy against advanced DND-41 tumors implanted in SCID mice; details: for T-C (tumor growth delay): time to reach 750 mg; for TFS (tumor free survivors): end of study day 160
Method: A product is considered to be active if log10 cell kill is greater than or equal to 0.7. A product is considered to be very active if log10 cell kill is greater than or equal to 2.8.
The animals subjected to the experiment, generally mice, are subcutaneously grafted bilaterally with 30 to 60 mg of a tumor fragment on day 0. The animals bearing tumors are randomized based on their tumor size before being subjected to the various treatments and controls. Chemotherapy begins when tumors have reached a predetermined size after grafting, depending on the type of tumor, and the animals are observed every day. […] The groups are then weighed once or twice a week until the end of the trial.
The tumors are measured 1 to 5 times a week, depending on the tumor doubling time, until the tumor reaches approximately 2 g, or until the animal dies (if this occurs before the tumor reaches 2 g). The animals are necropsied immediately after euthanasia or death.
The selected tumor model was a transplantable human T-cell acute lymphoblastic leukemia (T-ALL) cell line, DND-41, implanted in SCID mice.
Vincristine was formulated in 5% glucose in water.
Tumor doubling time=3.4 days.

murine CD38 = target: T1, murine CD38 (Mus musculus, UniProt P56528); assay: Cross-reactivity of the antibody with murine CD38; format: binding
T1 sequence (P56528 1-304): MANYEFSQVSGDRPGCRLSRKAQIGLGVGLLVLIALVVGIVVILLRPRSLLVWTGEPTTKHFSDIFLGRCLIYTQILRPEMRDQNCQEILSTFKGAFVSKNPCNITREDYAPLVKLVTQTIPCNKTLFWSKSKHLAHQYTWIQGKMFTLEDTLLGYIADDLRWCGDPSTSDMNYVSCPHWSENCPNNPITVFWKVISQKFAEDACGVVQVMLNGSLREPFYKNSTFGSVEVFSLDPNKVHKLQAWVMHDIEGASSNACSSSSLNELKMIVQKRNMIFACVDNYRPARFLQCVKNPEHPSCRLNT

[3] = vincristine alone 0.3 mg/kg/inj (total 1.2) IV
[4] = vincristine alone 0.5 mg/kg/inj (total 2.0) IV
[5] = vincristine alone 0.8 mg/kg/inj (total 3.2) IV
[6] = vincristine alone 0.3 mg/kg/inj IV
[7] = vincristine alone 0.5 mg/kg/inj IV
[8] = vincristine alone 0.8 mg/kg/inj IV
[9] = hu38SB19 alone 40.0 mg/kg/inj (total 160.0) IV days 18, 21, 24, 27
[10] = hu38SB19 alone 40.0 mg/kg/inj IV

CC[C@]1(O)C[C@H]2CN(CCc3c([nH]c4ccccc34)[C@@](C(=O)OC)(c3cc4c(cc3OC)N(C=O)[C@H]3[C@@](O)(C(=O)OC)[C@H](OC(C)=O)[C@]5(CC)C=CCN6CC[C@]43[C@@H]65)C2)C1 [vincristine, Vincristine]
BWC (body weight change) at nadir [1, 3]: −0.4% | drug death ([1]; vincristine alone 0.3 mg/kg/inj (total 1.2) IV days 18, 21, 24, 27): 0/6 | BWC (body weight change) at nadir [1, 4]: −5.3% | drug death ([1]; vincristine alone 0.5 mg/kg/inj (total 2.0) IV days 18, 21, 24, 27): 0/6 | BWC (body weight change) at nadir [1, 5]: −10.4% | drug death ([1]; vincristine alone 0.8 mg/kg/inj (total 3.2) IV days 18, 21, 24, 27): 0/6 | BWC (body weight change) at nadir ([1]; vincristine alone 1.3 mg/kg/inj (total 5.2) IV): −25.2% | drug death ([1]; vincristine alone 1.3 mg/kg/inj (total 5.2) IV days 18, 21, 24, 27): 0/6 | comments (activity/toxicity rating) ([1]; vincristine alone 1.3 mg/kg/inj IV): Toxic (−25% BWC) | body weight loss at nadir ([1]; vincristine alone 1.3 mg/kg/injection, nadir on day 27): 25.2% | highest nontoxic dose (HNTD) ([1]; vincristine alone IV days 18, 21, 24, 27, total injected dose 3.2 mg/kg): 0.8 mg/kg/inj | log10 cell kill [2, 3]: 1.4 | T-C (tumor growth delay) [2, 3]: 15.6 days | comments (activity/toxicity rating) [2, 6]: remained active | TFS (tumor free survivors) [2, 6]: 0/6 | log10 cell kill [2, 4]: 3.8 | T-C (tumor growth delay) [2, 4]: 43.3 days | comments (activity/toxicity rating) [2, 7]: Highly active | TFS (tumor free survivors) [2, 7]: no TFS and 0/6 | log10 cell kill [2, 5]: 4.4 | T-C (tumor growth delay) [2, 5]: 49.6 days | comments (activity/toxicity rating) [2, 8]: HNTD - Highly active | TFS (tumor free survivors) [2, 8]: no TFS and 0/6

hu38SB19: humanized anti-CD38 monoclonal antibody 38SB19; VH SEQ ID NO: 66, VL SEQ ID NO: 62 or 64
cross-reactivity with murine CD38 (murine CD38): lack of cross-reactivity | tolerability / toxicity ([1]; hu38SB19 alone 40 mg/kg/inj): well tolerated | BWC (body weight change) at nadir [1, 9]: −2.1% | drug death [1, 9]: 0/6 | log10 cell kill [2, 9]: 0.5 | T-C (tumor growth delay) [2, 9]: 6.1 days | comments (activity/toxicity rating) [2, 10]: not active; also recorded: HDT- Inactive | TFS (tumor free survivors) [2, 10]: 0/6
